Columns and labels:
[1] = test system: LNCaP (human prostate cancer) cells; assay: PDT long-term survival by colony formation assay; format: cell-based; settings: 514 nm light
Experimental: (§1) LNCaP (human prostate cancer) cells were treated with methotrexate (1 μg/ml) for 72 hours. The cells were then incubated with 0.3 mM ALA for 4 hours. After ALA treatment, cells were either used for quantification of PpIX or exposed to 514 nm light. […] This enhancement of PDT by chemotherapy can also be seen when long-term survival was assessed by colony formation assay (FIG. 6B). Here, the 50% levels are reached at 25 J/cm2, compared to 2 J/cm2. […] Chemotherapeutic effect was also confirmed using cyclophosphamide.

LNCaP cells [2] = assay: PDT using ALA-induced PpIX, cell survival (MTT conversion assay); format: cell-based, human; settings: for light dose to reduce cell survival by 50% (MTT): 514 nm light; for survival after PDT: versus no pretreatment
Experimental: ALA-induced PpIX for PDT of LNCaP cells with (circles) or without (triangles) pretreatment for 72 hours with 10^−7 M R1881. The cells were incubated with ALA concentrations from 0.1 to 1.0 mM for four hours prior to exposure to 10 J/cm^2 of 514 nm light.
PDT using ALA-induced PpIX in LNCaP cells with (circles) or without (triangles) pretreatment for 72 hours with 10^−7 M R1881. The cells were incubated with 0.3 mM ALA for four hours prior to exposure to 3-20 J/cm^2 of 514 nm light.
as §1

human skin = assay: Fluorescence micrograph of ALA-induced PpIX in human skin; settings: human skin incubated in ALA for 4 hours
[3] = test system: LNCaP human prostate cancer cells; assay: ALA-induced PpIX formation by LNCaP cells; format: cell-based
Experimental: ALA-induced PpIX formation by LNCaP human prostate cancer cells. The cells were incubated for four hours with 0.3 mM ALA after 72 hours of pretreatment with the synthetic androgen R1881 at concentrations between 10^−10 to 10^−6.
as §1

LNCaP cells [4] = assay: Confocal laser scanning microscopy of PPIX fluorescence in living cells; format: cell-based, human; settings: 10^−7 M R1881 72 hours, then 0.3 mM ALA 4 hours; excitation 488 nm
Experimental: LNCaP cells were pretreated with 10^−7 M R1881 for 72 hours or with vehicle, and then incubated with 0.3 mM ALA. At 4 hours the living cells were imaged using the confocal laser scanning microscope. Excitation was at 488 nm and both green (auto fluorescence) and red (PPIX) fluorescence was recorded and combined.

LNCaP tumors = assay: PpIX formation in LNCaP tumors in vivo (confocal imaging of frozen sections); set-up: species or system SCID mice; settings: 400 pg/kg R1881, after 4 days 250 mg/kg ALA i.p., tumors removed at 4 hours; 633 nm excitation
Experimental: SCID mice bearing LNCaP tumors were pretreated with a high dose of 400 pg/kg R1881 and after 4 days received 250 mg/kg ALA i.p. At 4 hours, the mice were sacrificed and the tumors removed. Frozen sections of the tumors were imaged on the confocal laser scanning microscope. Using 633 nm excitation, the sections of tumors from an untreated mouse (FIG. 5A) and an R1881-pretreated mouse (FIG. 5B) were imaged at the same instrument parameters.

[5] = cell line and regimen not stated
Experimental: as §1

[6] = PDT alone: 0.3 mM ALA 4 hours, no methotrexate
[7] = combined regimen: methotrexate 1 μg/ml 72 hours, 0.3 mM ALA 4 hours

SMILES: NCC(=O)CCC(=O)O [ALA]
- light dose for 50% level (colony formation) [1, 6]: 25 J/cm2
- light dose to reduce cell survival by 50% (MTT) (LNCaP cells [2]; [6]): 20 J/cm2
- ALA-induced PpIX fluorescence signal across epidermal layers (human skin): increase of fluorescence signal from bottom to top epidermal layers

SMILES: C[C@]1(O)CC[C@H]2[C@@H]3CCC4=CC(=O)CCC4=C3C=C[C@@]21C [R1881]
- ALA-induced PpIX formation (% of cells without androgen treatment) ([3]; 72 hours pretreatment with R1881 10^−10 to 10^−6, then 0.3 mM ALA four hours): significant increase
- survival after PDT (LNCaP cells [2]; 72 hours 10^−7 M R1881, 0.3 mM ALA four hours, 3-20 J/cm^2 of 514 nm light): Reduced survival
- survival after PDT (LNCaP cells [2]; 72 hours 10^−7 M R1881, ALA 0.1 to 1.0 mM four hours, 10 J/cm^2 of 514 nm light): Reduced survival
- PPIX fluorescence in cells (LNCaP cells [4]): strong PPIX fluorescence in almost all cells
- PpIX formation in tumors (LNCaP tumors): increased PpIX formation

SMILES: O=P1(N(CCCl)CCCl)NCCCO1 (stereo not drawn) [cyclophosphamide]
- chemotherapeutic effect (enhancement of PDT by pretreatment) [5]: confirmed

SMILES: CN(Cc1cnc2nc(N)nc(N)c2n1)c1ccc(C(=O)N[C@@H](CCC(=O)O)C(=O)O)cc1 [methotrexate]
- increase in PpIX levels ([3]; methotrexate 1 μg/ml 72 hours, then 0.3 mM ALA 4 hours, mean+/−standard deviation): 4.1±1.1 fold
- light dose for 50% level (colony formation) [1, 7]: 2 J/cm2
- light dose to reduce cell survival by 50% (MTT) (LNCaP cells [2]; [7]): 2 J/cm2

From US20080312150A1 (priority 1999, published 2008)
